Tests used:
metastatic melanoma = assay: Cytotoxicity (XTT, 72 hours), metastatic melanoma
Procedure: (§6) More particularly, cells were plated on 96 well plates with the following controls: no cells and toxic control (1×10^-3 M SDS). The drug was added to the first set of wells and diluted via standard dilution method from the stock. Plates were incubated at 37° C., 5% CO2 in sterile air in an humidified incubator for 72 hours. An aliquot of 50 L of a solution of 2,3-bis(methoxy-4-nitro-5-sulfophenyl)-5-[(phenylamino)carbonyl]-1H-tetrazolium hydroxide (XTT), 1 mg mL^-1, in phosphate buffered saline (PBS, 100 mM) was added to the wells. In the presence of viable cells, this colorless clear media is enzymatically altered to give a pink coloration. […] Percentage cytotoxicity was calculated using the formula: %C=1--(OD toxin)(OD growth control)^-1 (100).

[1] = background statement; cited from earlier work
tubulin [2] = assay: Microtubule polymerization-depolymerization measurements (turbidity at 340 nm); format: biochemical; details: for suppression of calcium chloride promoted depolymerization: 10^-6 M drug, 1.0 mg/mL tubulin, 0.25 mM CaCl2, 37° C.
Procedure: Tubulin polymerization-depolymerization measurements are illustrate in FIG. 3. Negative controls are shown with triangles; positive taxol controls are shown with diamonds; and taxol-2'-MPT, i.e., compound 2 is shown with dots.
More particularly, measurement were performed in 96 well plates at 37° C. following the protocol of R. Merlock and W. Wrasidlo (Analytical Biochemistry 1993, in press). Calcium chloride addition is indicated by the arrow. In each case, 1.0 mM GTP was used to promote the initial polymerization of tubulin. Negative control employed tubulin (1.0 mg/mL) alone, CaCl2 (0,25 mM) added after 20 minutes. Positive taxol control employed tubulin (1.0 mg/mL) with taxol (10^-6 M) and CaCl2 (0.25 mM) added after 20 minutes. The experimental taxol-2'-MPTemployed tubulin (1.0 mg/mL) with taxol-2'-MPT (10^-6) and CaCl2 (0.25 mM) added after 20 minutes. Turbidity was measured as optical density at 340 nm using a microplate reader (Molecular Devices Thermomax).

[3] = Octanol/water partition coefficient by HPLC
Procedure: (§1) The solubility and partition coefficient data for 2 and taxol were determined using an HPLC method.
(§2) Solubility was found by forming a solution in water with the aid of sonication for five minutes, centrifugation of the samples, and injection of the supernatant. The values reported were normalized using calibration curves constructed for both compounds by preparing known concentrations in the range 1×10^-6 to 1×10^-3 M in methylene chloride and subjecting to HPLC analysis under the same conditions. […] Partition coefficients were determined by dissolving the compound in the organic phase, shaking the resulting solution with water for ten minutes, and analyzing each phase by HPLC as above.

human leukemia = assay: Cytotoxicity (XTT, 72 hours), human leukemia
Procedure: as §6

cervical carcinoma = assay: Cytotoxicity (XTT, 72 hours), cervical carcinoma
Procedure: as §6

albumin = details: sera; cited from earlier work
tubulin [4] = details: background; cited from earlier work
non-serum proteins = assay: Displacement of MPT group by non-serum proteins
Source text: (§3) However, the release of taxol from taxol-2'-MPT can also be catalyzed by serum protein and by proteins having nucleophilic groups. […] Dialysis of the protein:taxol intermediate indicates a dissociation period of hours or days. Displacement of the MPT group by serum proteins seems to be specific for such serum proteins. […] The precise nature of the bonding between the protein and taxol has not been characterized. Scheme 2 illustrates alternative pathways for MPT release.

[5] = Stability of taxol-2'-MPT by HPLC (solid state, aqueous media); format: physicochemical
Procedure: (§4) Due to a difference in retention time using our standard HPLC conditions (see FIG. 1) and differing ultraviolet absorption maxima (1280 /1254 =1.6 for 2 and 0.3 for 1), the stability of 2 was easily assayed by HPLC (FIG. 1). […] In phosphate buffered saline (PBS) or ammonium acetate--phosphate buffer systems of pH 6.0 to 7.3, 2 is stable at 25° C. for over 21 days. Taxol-2'-MPT (2) is, however, unstable in 5% HCl (pH 1.1) and brine.

[6] = Self-assembly: optical clarity, OD at 340 nm, TEM; format: physicochemical; details: for morphology of self-assembled structures in buffered solutions: 1 mM in 100 mM PBS
Source text: Transmission electron microscopy (TEM) confirmed the presence of supramolecular structures in these solutions. […] It is likely that the long term stability of these solutions is due, at least in part, to stabilization provided by this structured environment.

[7] = Kinetics of taxol release from taxol-2'-MPT in aqueous solutions at 25° C.; format: physicochemical; details: sterile water, pH 6.2 PBS or 5% dextrose, over 11 minutes
Procedure: (§5) Under these conditions 20% of total is recovered. More particularly, Taxol-2'-MPT (2) was dissolved in the aqueous system with the aid of sonication for five minutes. Aliquots were then removed at the times shown and partitioned into methylene chloride to quench the reaction. Samples were then analyzed using a Waters Maxima HPLC instrument equipped with an autoinjector (3.9×300 mm C18 column equipped with a precolumn. The flow rate was 1.5 mL/minute. The eluent gradient A-B extended over 30 minutes. "A" was 80% 80 mM ammonium acetate, pH 6.0. "B" was 100% methanol. An ultraviolet diode array detector was employed. The ratio of compound 2 (Rf 16.2 min.) to taxol (compound 1, Rf 16.8 min.) remaining was determined from the relative areas of the peaks after normalization with previously determined calibration curves.

[8] = Solubility in water by HPLC (sonication, centrifugation, injection of supernatant); format: physicochemical
Procedure: as §1, §2

serum protein = assay: Displacement of MPT group by serum protein
Source text: as §3

[9] = tested on: A549 non-small cell lung adenocarcinoma; assay: Efficacy in lung tumor xenograft nude mouse model
Procedure: The tumor model was generated from an ATCC A549 non-small cell lung adenocarcinoma cell line that was maintained under the standard cell proliferation conditions (37° C., 5% carbon dioxide in sterile air). Hemocytometer counted cells suspended in Hanks medium (Gibco, Grand Island N.Y.) were implanted S.C.

[10] = Stability/kinetics of taxol release from taxol-2'-MPT in plasma; format: in vitro ADME, human
Procedure: as §4, §5

serum albumen = assay: Displacement of MPT group by serum albumin
Source text: as §3

immunoglobulins = assay: Displacement of MPT group by immunoglobulins
Source text: as §3

[11] = water, 5% dextrose, 1.5% saline

## CC(=O)O[C@H]1C(=O)[C@@]2(C)[C@H]([C@H](OC(=O)c3ccccc3)[C@]3(O)C[C@H](OC(=O)[C@H](O)[C@@H](NC(=O)c4ccccc4)c4ccccc4)C(C)=C1C3(C)C)[C@]1(OC(C)=O)CO[C@@H]1C[C@@H]2O [taxol, reference compound]
Metastatic melanoma
  cytotoxicity level, metastatic melanoma: Extremely high
[1]
  water solubility: less than 1.5×10^-6 molar
Tubulin [2]
  suppression of calcium chloride promoted depolymerization: suppressed by taxol
Tubulin [2]; taxol recovered from plasma
  microtubule stabilization by taxol recovered from human plasma treated with 2: exhibited the expected microtubule stabilization
[3]
  Partition Coefficient [octanol]/[water]: > 10000
Human leukemia
  cytotoxicity level, human leukemia: Extremely high
Cervical carcinoma
  cytotoxicity level, cervical carcinoma: Extremely high
albumin
  taxol binding to albumin: ca. 85%
Tubulin [4]
  effect of taxol binding on tubulin: prevents its polymerization and the formation of microtubules

## CC(=O)O[C@H]1C(=O)[C@@]2(C)[C@H]([C@H](OC(=O)c3ccccc3)[C@]3(O)C[C@H](OC(=O)[C@H](Oc4cccc[n+]4C)[C@@H](NC(=O)c4ccccc4)c4ccccc4)C(C)=C1C3(C)C)[C@]1(OC(C)=O)CO[C@@H]1C[C@@H]2O [taxol-2'-MPT]
non-serum proteins
  MPT-displacing activity of non-serum proteins: seemed to lack this activity
[5]; 5% HCl (pH 1.1) and brine
  stability in 5% HCl and brine: unstable
[5]; HPLC
  degradation products detected: taxol and the pyridinone that results from hydrolysis of pyridinium salts
[5]; PBS or ammonium acetate-phosphate buffer, pH 6.0 to 7.3, 25° C.
  stability period in buffer: over 21 days
[5]; aqueous media, physiological pH and ion strength
  stability in aqueous media (discussion): essentially completely stable
[5]; most aqueous media
  stability in most aqueous media (discussion): remarkably stable
[5]; [11]
  onset of slow degradation: > 4 days
  stability in water, 5% dextrose, and 1.5% saline: stable for several days
[6]; TEM
  morphology of self-assembled structures in buffered solutions: self-assembled helical fibrous nanostructures
  diameter of fibrillar aggregates: ca. 80 Å
  helical twist of aggregates: about 7
  length of fibrillar aggregates: up to 800 Å
[6]; TEM, listed as 2
  morphology of self-assembled structures in buffered solutions: Uniform aggregates of fibrillar structure
[6]; 1 mM in H2O, TEM
  morphology of self-assembled structures in unbuffered solutions: self-assembled spherical nanostructures
[6]; buffered solutions
  concentration above which haze is exhibited: greater than 1×10^-3 M
[6]; buffered solutions, 340 nm
  critical concentration (exponential increase in OD at 340 nm): 400 µM
[6]; freshly sonicated solutions, TEM
  diameter of spherical structures: about 50 Å
[6]; water, all concentrations examined
  optical appearance of water solutions: optically clear
Metastatic melanoma
  cytotoxicity level, metastatic melanoma: Extremely high
[7]
  taxol release in aqueous media: no taxol release is observed
[8]
  degradation during solubility and partition studies: No degradation
[8]; range of aqueous systems
  solubility compared with clinically relevant dosages (3 to 30 mM): higher than the clinically relevant dosages
[8]; relative to taxol
  water solubility compared with parent taxol: significantly more soluble in water than the parent taxol
[8]; water, HPLC, table value
  solubility: 1700 µM
Tubulin [2]
  suppression of calcium chloride promoted depolymerization: not by taxol-2'-MPT
Tubulin [2]; GTP-saline controls and taxol as comparators
  microtubule polymerization-depolymerization: very similar to GTP-saline controls and drastically different from taxol
Tubulin [2]; buffered aqueous assay
  effect on tubulin-microtubule equilibria: does not affect the tubulin-microtubule equilibria
Tubulin [2]; inferred from the polymerization assay
  binding to tubulin: does not appear to bind to tubulin in the manner of taxol
Serum protein
  displacement of MPT group on contact with serum protein: observed to displace its MPT group and form a protein:taxol intermediate
[9]; I.P. day 1, 3, 7, taxol 18.0 mg/kg, taxol-2'-MPT 23.9 mg/kg, preliminary data
  control of tumor growth: at least comparable to that of taxol
[9]; inferred from the xenograft results
  conversion to taxol in vivo: converted rapidly to taxol in vivo
[10]; human plasma, 37° C.
  degradation in human plasma: breaks down rapidly
[10]; human, plasma, methylene chloride extraction, read-out: total recovered from plasma
  recovery: 20%
[10]; plasma, methylene chloride extraction
  total recovered from plasma: 20%
[10]; plasma, methylene chloride extraction, 25° C. per FIG. 1
  time to complete conversion of 2 into taxol in plasma: ≤ 10 min
[10]; sera
  discharge of taxol in sera: rapidly discharges taxol in sera
[3]
  logP: 1.7
Serum albumen
  effectiveness in displacing MPT group, serum albumin: particularly effective
Human leukemia
  cytotoxicity level, human leukemia: Extremely high
immunoglobulins
  effectiveness in displacing MPT group, immunoglobulins: particularly effective
Cervical carcinoma
  cytotoxicity level, cervical carcinoma: Extremely high
